Experimental data from the supplement of paper PMC6206229.
Values after ≈ are worked out from the molar mass of the structure shown.

Key:
[1] = tested on: Staphylococcus aureus ATCC 700699 (MRSA); assay: minimum inhibitory concentration; extreme values may be limits of the assay
Method in brief: (§1)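 Methicillin-susceptible and methicillin-resistant Staphylococcus aureus were assessed by broth microdilution with a resazurin read-out, compounds spanning 0 to 100 µM and incubated for 24 h at 37°C before 30 µl of 0.015% resazurin was added for 2–4 h. For the minimum inhibitory concentration, the lowest concentration whose well stayed blue rather than pink was recorded.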

[2] = tested on: Staphylococcus aureus ATCC 29213 (MSSA); assay: as above
Method in brief: as §1

Structure (SMILES)	minimum inhibitory concentration [1]	minimum inhibitory concentration [2]
CC(c1cc(Cl)cc(Cl)c1)N(C)c1ncc2c(N)nc(N)nc2n1 (stereo not drawn)	50 µM (≈ 18.2 µg/mL)	50 µM (≈ 18.2 µg/mL)
COc1ccccc1CNC(=O)c1cc(C2CC2)nc2c1cnn2C(C)C	> 50 µM	> 50 µM
O=C(Nc1ccnc(-c2cccnc2)n1)c1cc(C(F)(F)F)cc(C(F)(F)F)c1	> 50 µM	> 50 µM
CC(C(=O)Nc1ccc2oc(-c3ccncc3)nc2c1)c1ccccc1 (stereo not drawn)	> 50 µM	> 50 µM
c1cc(C2=NCCN2)cc(-c2cc(-c3ccc(C4=NCCN4)cc3)no2)c1	> 50 µM	> 50 µM
Cc1ccc(S(=O)(=O)Nc2ccc(CN3CCN(C(=O)c4cccc(C#N)c4)CC3)cc2)cc1	> 50 µM	> 50 µM
CC(C)(C)n1nc(Cc2ccc(F)c(Cl)c2)c2c(N)ncnc21	> 50 µM	> 50 µM
Cc1cc2ccccc2n1CC(=O)N1CC(C(=O)N2CCCCC2)Oc2ccccc21 (stereo not drawn)	> 50 µM	> 50 µM
CS(=O)(=O)N1CCC(Cn2nc(Cc3cccc4ccccc34)c3c(N)ncnc32)CC1	> 50 µM	> 50 µM
FC(F)(F)c1ccc(N(c2cccnc2)C2CCN(c3ccc(C(F)(F)F)cn3)CC2)cc1	> 50 µM	> 50 µM
NC(CC(=O)c1ccc(Cl)cc1Cl)C(Cl)(Cl)Cl (stereo not drawn)	> 50 µM	> 50 µM
COc1ccccc1OCCCCn1c(C2CC2)nc2ccccc21	> 50 µM	> 50 µM
CC(C)(C)c1cc(C(=O)N2CCN(c3nccnc3C#N)CC2)n(Cc2ccccc2)n1	> 50 µM	> 50 µM
N=C(N)c1ccc(OCCCCCOc2ccc(C(=N)N)cc2)cc1	> 50 µM	12.5 µM (≈ 4.26 µg/mL)
Cc1nc(-c2cccc(NCc3ccccc3)c2)[nH]c1C	50 µM (≈ 13.9 µg/mL)	50 µM (≈ 13.9 µg/mL)
O=C(Cn1ccnc1[N+](=O)[O-])NCc1ccccc1	> 50 µM	> 50 µM
COc1cc(NC(=O)Cc2nn(C)c(=O)c3ccccc23)ccc1Cl	> 50 µM	> 50 µM
CCOc1ccccc1NC(C)C(=O)Nc1cc(C(F)(F)F)ccc1N1CCOCC1 (stereo not drawn)	> 50 µM	> 50 µM
NS(=O)(=O)c1cccc(-c2ccc3ncc(N4CCOCC4)nc3c2)c1	> 50 µM	> 50 µM
Cc1ccc(-c2cc(C(=O)Nc3cccnc3)c3cc(Br)ccc3n2)cc1	50 µM (≈ 20.9 µg/mL)	50 µM (≈ 20.9 µg/mL)
Cc1cc(Cl)ccc1NC(=O)CCc1ccc(S(=O)(=O)NCC(C)C)cc1	> 50 µM	> 50 µM
CCC(NC(=O)c1ccccc1NC(=O)c1ccc(C)cc1)C(=O)OC (stereo not drawn)	> 50 µM	> 50 µM
Cc1c[nH]c(CCNC(=O)c2cc(-c3ccc(Cl)cc3)cs2)n1	> 50 µM	> 50 µM

Structure (SMILES)	minimum inhibitory concentration [1]	minimum inhibitory concentration [2]
O=C(Nc1cccnc1)c1c(O)c2cccc3c2n(c1=O)CC3	50 µM (≈ 15.4 µg/mL)	25 µM (≈ 7.68 µg/mL)
CC(C)(C)[C@H]1CC[C@H](CC2=C(O)C(=O)c3ccccc3C2=O)CC1	> 50 µM	> 50 µM
CC1COC(Cn2cncn2)(c2ccc(Oc3ccc(Cl)cc3)cc2Cl)O1 (stereo not drawn)	> 50 µM	> 50 µM
CO/N=C(\C(=O)OC)c1ccccc1CO/N=C(\C)c1cccc(C(F)(F)F)c1	> 50 µM	> 50 µM
COc1ccc(-c2nnc3ccc(-c4cccc(C(C)C)c4)cn23)cc1OC	> 50 µM	> 50 µM
CN1CCN(c2cc(-c3ccc(F)cc3)nc(-c3ccncc3)n2)CC1	> 50 µM	> 50 µM
COCC(C)NC(=O)CSc1ncnc2sc(-c3ccccc3)cc12 (stereo not drawn)	> 50 µM	> 50 µM
N#Cc1ccc(-c2ccc(OCC(N)=O)cc2)cc1	> 50 µM	> 50 µM
c1ccc(C[C@@H]2CN(c3nccc(Oc4ccc(-n5ccnc5)cc4)n3)CCN2)cc1	> 50 µM	> 50 µM
CO[C@H]1/C=C\O[C@@]2(C)Oc3c(C)c(O)c4c(O)c(/c(=C/NN5CCN(C)CC5)c(O)c4c3C2=O)=N\C(=O)/C(C)=C\C=C/[C@H](C)[C@H](O)[C@@H](C)[C@@H](O)[C@@H](C)[C@H](OC(C)=O)[C@@H]1C	50 µM (≈ 41.1 µg/mL)	0.09 µM (≈ 0.0741 µg/mL)
CCc1nc2ccc(C(=O)NCc3ccc4c(c3)OCO4)cn2c1N(C)Cc1cccs1	> 50 µM	> 50 µM
CS(=O)(=O)c1ccc(C(=O)N(CC2CCCO2)c2nc3ccccc3s2)cc1[N+](=O)[O-] (stereo not drawn)	> 50 µM	> 50 µM
CC(C)NCC(=O)Nc1cccc(C(=O)Nc2cccc(C(F)(F)F)c2)c1	> 50 µM	> 50 µM
CCN(CC)CCCCCCNc1cc(OC)cc2c(C)ccnc12	> 50 µM	> 50 µM
Cc1nc(-c2ccccn2)nc(NCCc2ccc(S(C)(=O)=O)cc2)c1Cl	> 50 µM	> 50 µM
CC(C)n1ncc2c(C(=O)NCC(c3cccs3)N3CCOCC3)cc(-c3ccccc3)nc21 (stereo not drawn)	> 50 µM	> 50 µM
NCCCC(N)(C(=O)O)C(F)F (stereo not drawn)	> 50 µM	> 50 µM
CN1CCCC1CCO[C@](C)(c1ccccc1)c1ccc(Cl)cc1 (stereo partly drawn)	50 µM (≈ 17.2 µg/mL)	> 50 µM
Cc1cc(O)nc(-n2nc(C)cc2C)n1	> 50 µM	> 50 µM
CC(=O)Nc1ccc(-c2noc(CC3CCCN(Cc4cccc(F)c4C)C3)n2)cc1 (stereo not drawn)	> 50 µM	> 50 µM
CCN(CC)S(=O)(=O)c1ccc(C(=O)Nc2cc(C)nn2-c2nc(C)c(C)c(=O)[nH]2)cc1	50 µM (≈ 22.9 µg/mL)	50 µM (≈ 22.9 µg/mL)
CCCCc1ccc(NC(=O)Nc2ccc(O[C@H]3CCCC[C@@H]3N(C)c3ccccc3)c(F)c2)cc1	> 50 µM	> 50 µM
CS(=O)(=O)N1CCC(CCn2nc(Cc3cccc4ccccc34)c3c(N)ncnc32)CC1	> 50 µM	> 50 µM

Structure (SMILES)	minimum inhibitory concentration [1]	minimum inhibitory concentration [2]
COc1ccc(Oc2ccc([C@@H](C)N(C)c3ncc4c(N)nc(N)nc4n3)cc2)cc1	> 50 µM	> 50 µM
COC(=O)C1=C(C)NC(C)=C(C(=O)OC(C)C)C1c1cccc2nonc12 (stereo not drawn)	> 50 µM	> 50 µM
Cc1nn2c(O)c3c(nc2c1-c1ccc(F)cc1)CCCC3	> 50 µM	> 50 µM
c1ccc(Oc2ccc(-c3cncc(-c4ccc5[nH]ccc5c4)n3)cc2)cc1	> 50 µM	> 50 µM
CCc1nc2ccc(Cl)cn2c1C(=O)NCc1ccc(N2CCC(c3ccc(OC(F)(F)F)cc3)CC2)cc1	> 50 µM	> 50 µM
Brc1c(-c2ccc3c(c2)OCO3)nc2ncccn12	> 50 µM	> 50 µM
CN1CCN(c2nccc3[nH]c(-c4cccc(F)c4)cc23)CC1	> 50 µM	> 50 µM
Cc1ccc(NC(=O)c2cc(S(=O)(=O)NC(C)(C)C)ccc2C)nc1	> 50 µM	> 50 µM
COc1cccn2c(C(=O)N3CCCCC3)c(C(F)(F)F)nc12	> 50 µM	> 50 µM
O=C(NC1CC1)c1ccc(CSCc2ccccc2Cl)o1	> 50 µM	> 50 µM
COC(=O)c1c(NC(=O)c2cc3ccccc3oc2=O)sc2c1CCN(Cc1ccccc1)C2	> 50 µM	> 50 µM
CNC(=O)C1Cc2ccccc2N1C(=O)Cc1ccc(F)cc1 (stereo not drawn)	> 50 µM	> 50 µM
Clc1ccc(CCNc2cc(-c3ccccc3)nc3ncnn23)cc1	> 50 µM	> 50 µM
COc1ccc(C2=NN(C3CCCCCC3)C(=O)C2(C)C)cc1OCCCCOc1ccc(-c2nn[nH]n2)cc1	50 µM (≈ 27.3 µg/mL)	50 µM (≈ 27.3 µg/mL)
O=C(CCC1CCCCC1)Nc1cccc(-c2nnc(-c3ccco3)o2)c1	> 50 µM	> 50 µM
CCCCCCCCCCCCCCCCOP(=O)([O-])OCC[N+](C)(C)C	> 50 µM	> 50 µM
CC(C)(C)n1nc(-c2ccccc2)c2c(N)ncnc21	> 50 µM	> 50 µM
CC1CC1C(=O)NC1CCN(CC2(c3ccccc3)CCCCC2)CC1 (stereo not drawn)	> 50 µM	> 50 µM
CNc1nnc(Sc2cnn(-c3ccccc3)c(=O)c2Cl)s1	> 50 µM	> 50 µM
CN1CCN(CCCOc2ncc(Nc3ncc(-c4ccc(C(F)(F)F)c(F)c4)nc3C(N)=O)cn2)CC1	> 50 µM	> 50 µM
Nc1nccc2ccc(-c3ccc4nccn4c3)cc12	> 50 µM	> 50 µM
CCN(CC)C(=O)N1CCN(C)CC1	> 50 µM	> 50 µM
C[C@H](C(N)=O)N1CCCC[C@@H]1c1ccc(OCc2cccc(F)c2)cc1	> 50 µM	> 50 µM
